# Experimental data published in US10597364B2, “Anthelmintic compounds, compositions and method of using thereof” (priority 2015, dated 2020).
# Read-outs that look alike come from different tables or passages of the source.
# Assays:
# [1] = tested on: microfilaria of Dirofilaria immitis; test: Method C: microfilaria of Dirofilaria immitis motility screen; assay type: cell-based; details: read-out: inhibition of the microfilaria's motility
# Haemonchus contortus = test: Method A: Haemonchus contortus L1 larval development/motility screen in microtitre plate; assay type: cell-based; details: 96 h, read-out: motility inhibition
SMILES,inhibition at 10 µM ([1]; 24 h) [%],inhibition at 5 µM (Haemonchus contortus) [%],inhibition at 5 ppm ([1]; 24 h) [%],other results
O=C(NC1CCCC1)N1CCN(c2ccnc(O[C@H]3CC[C@H](Nc4ccc([N+](=O)[O-])c(C(F)(F)F)c4)CC3)c2)CC1 [Compound 69],≥ 90,≥ 90,–,–
CCOCCC(=O)N1CCN(c2cc(O[C@H]3CC[C@H](Nc4ccc([N+](=O)[O-])c(C(F)(F)F)c4)CC3)ccn2)CC1 [Compound 70],≥ 90,≥ 90,–,–
N#Cc1ccc(N[C@H]2CC[C@H](Oc3cncc(N4CCN(Cc5ccc(C(F)(F)F)cc5)CC4)c3)CC2)cc1C(F)(F)F [Compound 181],≥ 90,≥ 90,–,–
O=[N+]([O-])c1ccc(N[C@H]2CC[C@H](Oc3cc(N4CCN(C(=S)Nc5ccc(F)cc5)CC4)ccn3)CC2)cc1C(F)(F)F [Compound 89],–,≥ 90,≥ 90,–
O=C(Cc1ccc(C(F)(F)F)cc1)N1CCN(c2ccnc(O[C@H]3CC[C@H](Nc4ccc([N+](=O)[O-])c(C(F)(F)F)c4)CC3)c2)CC1 [Compound 61],–,≥ 90,≥ 90,–
N#Cc1ccc(N[C@H]2CC[C@H](Oc3ccnc(N4CCN(C(=O)CC5CCCC5)CC4)c3)CC2)cc1C(F)(F)F [Compound 177],≥ 90,≥ 90,–,–
CC(C)(C)OC(=O)N1CCN(c2ccnc(O[C@H]3CC[C@H](Nc4ccc(C#N)c(C(F)(F)F)c4)CC3)c2)CC1 [Compound 59],≥ 90,≥ 90,–,–
O=C(CC1CCCC1)N1CCN(c2cc(O[C@H]3CC[C@H](Nc4ccc(S(=O)(=O)C(F)(F)F)cc4)CC3)ccn2)CC1 [Compound 188],≥ 90,≥ 90,–,–
COCCOCC(=O)N1CCN(c2cc(O[C@H]3CC[C@H](Nc4ccc([N+](=O)[O-])c(C(F)(F)F)c4)CC3)ccn2)CC1 [Compound 72],≥ 90,≥ 90,–,–
CCCOC(=O)N1CCN(c2cc(O[C@H]3CC[C@H](Nc4ccc([N+](=O)[O-])c(C(F)(F)F)c4)CC3)ccn2)CC1 [Compound 26],≥ 90,≥ 90,–,–
O=C(CC(F)(F)F)N1CCN(c2cc(O[C@H]3CC[C@H](Nc4ccc([N+](=O)[O-])c(C(F)(F)F)c4)CC3)ccn2)CC1 [Compound 71],≥ 90,≥ 90,–,–
CCCC(=O)N1CCN(c2cc(O[C@H]3CC[C@H](Nc4ccc([N+](=O)[O-])c(C(F)(F)F)c4)CC3)ccn2)CC1 [Compound 40],–,≥ 90,–,"inhibition at 10 µM ([1]; 10 μM, 24 hours): ≥ 90%"
O=[N+]([O-])c1ccc(N[C@H]2CC[C@H](Oc3cncc(N4CCN(C/C=C/c5ccc(C(F)(F)F)cc5)CC4)c3)CC2)cc1C(F)(F)F [Compound 48],–,≥ 90,≥ 90,–
CC(C)(C)NC(=O)N1CCN(c2cc(O[C@H]3CC[C@H](Nc4ccc([N+](=O)[O-])c(C(F)(F)F)c4)CC3)ccn2)CC1 [Compound 49],≥ 90,≥ 90,–,–
O=C(Cc1ccc(F)cc1)N1CCN(c2cc(O[C@H]3CC[C@H](Nc4ccc([N+](=O)[O-])c(C(F)(F)F)c4)CC3)ccn2)CC1 [Compound 46],≥ 90,≥ 90,–,–
CC(C)(C)CC(=O)N1CCN(c2ccnc(O[C@H]3CC[C@H](Nc4ccc([N+](=O)[O-])c(C(F)(F)F)c4)CC3)c2)CC1 [Compound 25],≥ 90,≥ 90,–,–
"O=[N+]([O-])c1ccc(N[C@H]2CC[C@H](Oc3cc(N4CCN(C(=S)Nc5ccc(C(F)(F)F)cc5)CC4)ccn3)CC2)cc1C(F)(F)F [Compound 68, 4-[2-[(4-[[4-nitro-3-(trifluoromethyl)phenyl]amino]cyclohexyl)oxy]pyridin-4-yl]-N-[4-(trifluoromethyl)phenyl]piperazine-1-carbothioamide]",–,≥ 90,≥ 90,–
CCCNC(=O)N1CCN(c2ccnc(O[C@H]3CC[C@H](Nc4ccc([N+](=O)[O-])c(C(F)(F)F)c4)CC3)c2)CC1 [Compound 85],–,≥ 90,–,"inhibition at 5 ppm ([1]; 5 ppm, 24 hours): ≥ 90%"
CCCCN1CCN(c2cc(O[C@H]3CC[C@H](Nc4ccc([N+](=O)[O-])c(C(F)(F)F)c4)CC3)ccn2)CC1 [Compound 41],≥ 90,≥ 90,–,–
CCCC(=O)N1CCN(c2ccnc(O[C@H]3CC[C@H](Nc4ccc([N+](=O)[O-])c(C(F)(F)F)c4)CC3)c2)CC1 [Compound 39],–,≥ 90,≥ 90,–
CC(C)(C)OC(=O)N1CCN(c2ccc(O[C@H]3CC[C@H](Nc4ccc([N+](=O)[O-])c(C(F)(F)F)c4)CC3)cn2)CC1 [Compound 83],–,≥ 90,≥ 90,–
O=[N+]([O-])c1ccc(N[C@H]2CC[C@H](Oc3ccnc(N4CCN(Cc5nc6cc(C(F)(F)F)ccc6s5)CC4)c3)CC2)cc1C(F)(F)F [Compound 86],–,≥ 90,≥ 90,–
CC(C)(C)CN1CCN(c2cc(O[C@H]3CC[C@H](Nc4ccc([N+](=O)[O-])c(C(F)(F)F)c4)CC3)ccn2)CC1 [Compound 67],–,≥ 90,–,"inhibition at 10 µM ([1]; 10 μM, 24 hours): ≥ 90%"

SMILES,inhibition at 10 µM ([1]; 24 h) [%],inhibition at 5 µM (Haemonchus contortus) [%],inhibition at 5 ppm ([1]; 24 h) [%],other results
CC(C)(C)CN1CCN(c2cncc(O[C@H]3CC[C@H](Nc4ccc([N+](=O)[O-])c(C(F)(F)F)c4)CC3)c2)CC1 [Compound 54],–,≥ 90,–,"inhibition at 10 µM ([1]; 10 μM, 24 hours): ≥ 90%"
CCCN1CCN(c2ccnc(O[C@H]3CC[C@H](Nc4ccc([N+](=O)[O-])c(C(F)(F)F)c4)CC3)c2)CC1 [Compound 87],≥ 90,≥ 90,–,–
CCCN1CCN(c2cc(O[C@H]3CC[C@H](Nc4ccc([N+](=O)[O-])c(C(F)(F)F)c4)CC3)ccn2)CC1 [Compound 78],–,≥ 90,–,"inhibition at 10 µM ([1]; 10 μM, 24 hours): ≥ 90%"
N#Cc1ccc(N[C@H]2CC[C@H](Oc3cc(N4CCN(C(=O)CC5CCCC5)CC4)ccn3)CC2)cc1C(F)(F)F [Compound 183],≥ 90,≥ 90,–,–
CCCNC(=O)N1CCN(c2cncc(O[C@H]3CC[C@H](Nc4ccc([N+](=O)[O-])c(C(F)(F)F)c4)CC3)c2)CC1 [Compound 95],–,≥ 90,–,"inhibition at 10 µM ([1]; 10 μM, 24 hours): ≥ 90%"
"O=C(CC1CCCC1)N1CCN(c2ccnc(O[C@H]3CC[C@H](Nc4ccc([N+](=O)[O-])c(C(F)(F)F)c4)CC3)c2)CC1 [Compound 5, 2-cyclopentyl-1-(4-(2-(4-(4-nitro-3-(trifluoromethyl)phenylamino)cyclohexyloxy)pyridin-4-yl)piperazin-1-yl)ethanone]",–,≥ 90,≥ 90,–
O=[N+]([O-])c1ccc(N[C@H]2CC[C@H](Oc3ccc(N4CCN(C/C=C/c5ccc(C(F)(F)F)cc5)CC4)nc3)CC2)cc1C(F)(F)F [Compound 80],–,≥ 90,≥ 90,inhibition at 1 ppm ([1]; 24 h): ≥ 90%
CCOC(=O)N1CCN(c2cncc(O[C@H]3CC[C@H](Nc4ccc([N+](=O)[O-])c(C(F)(F)F)c4)CC3)c2)CC1 [Compound 38],–,≥ 90,≥ 90,–
O=[N+]([O-])c1ccc(N[C@H]2CC[C@H](Oc3cncc(N4CCN(C(=S)NC5CCCC5)CC4)c3)CC2)cc1C(F)(F)F [Compound 79],–,≥ 90,≥ 90,–
O=C(NC1CCCC1)N1CCN(c2cncc(O[C@H]3CC[C@H](Nc4ccc([N+](=O)[O-])c(C(F)(F)F)c4)CC3)c2)CC1 [Compound 82],≥ 90,≥ 90,–,–
CCCCN1CCN(c2cncc(O[C@H]3CC[C@H](Nc4ccc([N+](=O)[O-])c(C(F)(F)F)c4)CC3)c2)CC1 [Compound 53],≥ 90,≥ 90,–,–
CC(C)(C)CC(=O)N1CCN(c2cc(O[C@H]3CC[C@H](Nc4ccc([N+](=O)[O-])c(C(F)(F)F)c4)CC3)ccn2)CC1 [Compound 33],≥ 90,≥ 90,–,–
CCC(=O)N1CCN(c2cc(O[C@H]3CC[C@H](Nc4ccc([N+](=O)[O-])c(C(F)(F)F)c4)CC3)ccn2)CC1 [Compound 60],–,≥ 90,–,"inhibition at 10 µM ([1]; 10 μM, 24 hours): ≥ 90%"
O=C(CC1CC1)N1CCN(c2cc(O[C@H]3CC[C@H](Nc4ccc([N+](=O)[O-])c(C(F)(F)F)c4)CC3)ccn2)CC1 [Compound 28],≥ 90,≥ 90,–,–
O=C(Nc1ccc(F)cc1)N1CCN(c2cncc(O[C@H]3CC[C@H](Nc4ccc([N+](=O)[O-])c(C(F)(F)F)c4)CC3)c2)CC1 [Compound 106],–,≥ 90,–,"inhibition at 10 µM ([1]; 10 μM, 24 hours): ≥ 90%"
O=[N+]([O-])c1ccc(N[C@H]2CC[C@H](Oc3ccnc(N4CCN(C/C=C/c5ccc(C(F)(F)F)cc5)CC4)c3)CC2)cc1C(F)(F)F [Compound 76],–,≥ 90,≥ 90,–
O=C(Oc1ccc(F)cc1)N1CCN(c2ccnc(O[C@H]3CC[C@H](Nc4ccc([N+](=O)[O-])c(C(F)(F)F)c4)CC3)c2)CC1 [Compound 30],–,≥ 90,≥ 90,–
CC(C)(C)NC(=O)N1CCN(c2cncc(O[C@H]3CC[C@H](Nc4ccc([N+](=O)[O-])c(C(F)(F)F)c4)CC3)c2)CC1 [Compound 66],–,≥ 90,≥ 90,–
CCCN1CCN(c2cncc(O[C@H]3CC[C@H](Nc4ccc([N+](=O)[O-])c(C(F)(F)F)c4)CC3)c2)CC1 [Compound 77],≥ 90,≥ 90,–,–
"CC(C)(C)NC(=O)N1CCN(c2ccnc(O[C@H]3CC[C@H](Nc4ccc([N+](=O)[O-])c(C(F)(F)F)c4)CC3)c2)CC1 [Compound 65, N-tert-butyl-4-[2-[(4-[[4-nitro-3-(trifluoromethyl)phenyl]amino]cyclohexyl)oxy]pyridin-4-yl]piper-azine-1-carboxamide]",–,≥ 90,≥ 90,–
CCNC(=O)N1CCN(c2ccnc(O[C@H]3CC[C@H](Nc4ccc([N+](=O)[O-])c(C(F)(F)F)c4)CC3)c2)CC1 [Compound 96],≥ 90,≥ 90,–,–
O=C(N1CCN(c2ccnc(O[C@H]3CC[C@H](Nc4ccc([N+](=O)[O-])c(C(F)(F)F)c4)CC3)c2)CC1)C(F)(F)F [Compound 58],–,≥ 90,–,"inhibition at 5 ppm ([1]; 5 ppm, 24 hours): ≥ 90%"
